Results published in patent publication US7741488B2, “Tetrahydropyridothiophenes as antiproliferative agents for the treatment of cancer” (4SC AG, priority 2005, dated 2010).
pIC50: −log10 of the molar value.

Legend:
[1] = test system: RKO (RKOp27) human colon adenocarcinoma cells; assay: Alamar Blue cell viability assay, anti-proliferative/cytotoxic activity on proliferating (uninduced) RKO p27 cells; type: cell-based; settings: RKOp27, 72 h, proliferating cells without inducer Ponasterone A
Experimental: The anti-proliferative/cytotoxic activity of the compounds described herein, can be tested on subclones of RKO (RKOp27) human colon adenocarcinoma cells (Schmidt et al., Oncogene 19, 2423-2429; 2000) using the Alamar Blue cell viability assay (described in O'Brien et al. Eur J Biochem 267, 5421-5426, 2000). The compounds are dissolved as 20 mM solutions in dimethylsulfoxide (DMSO) and subsequently diluted in semi-logarithmic steps. DMSO dilutions are further diluted 1:100 into Dulbecco's modified Eagle's medium (DMEM) containing 10% fetal calf serum to a final concentration twice as much as the final concentration in the test. RKO subclones are seeded into 96 well flat bottom plates at a density of 4000 cells per well in a volume of 50 μl per well. 24 hours after seeding the 50 μl each of the compound dilutions in DMEM medium are added into each well of the 96 Well plate. Each compound dilution is tested as quadruplicates. Wells containing untreated control cells are filled with 50 μl DMEM medium containing 1% DMSO. The cells are then incubated with the substances for 72 hours at 37° C. in a humidified atmosphere containing 5% carbon dioxide. To determine the viability of the cells, 10 μl of an Alamar Blue solution (Biosource) are added and the fluorescence is measured at an extinction of 544 nm and an emission of 590 nm. For the calculation of the cell viability the emission value from untreated cells is set as 100% viability and the emission rates of treated cells are set in relation to the values of untreated cells. Viabilities are expressed as % values.
The corresponding IC50 values of the compounds for anti-proliferative/cytotoxic activity are determined from the concentration-effect curves.
Representative IC50 values for anti-proliferation/cytotoxicity determined in the mentioned assay follow from the following table A, in which the numbers of the compound correspond to the numbers of the examples.

[2] = test system: RKOp27 colon adenocarcinoma cells arrested by expression of ectopic p27Kip1; assay: Alamar Blue cell viability assay on RKO p27 cells arrested by Ponasterone A induced p27Kip1 (cell cycle specific mode of action); type: cell-based; settings: Homo sapiens, 72 hours, cells arrested by p27Kip1 induced with 10 μM Ponasterone A
Experimental: To determine the cell cycle specific mode of action, subclones of RKO colon adenocarcinoma cells (RKOp27 or RKOp21 as described by Schmidt et al. in Oncogene 19, 2423-2429; 2000) are seeded into 96 well flat bottom plates at a density of 16000 cells per well in a volume of 50 μl per well in DMEM growth medium with 10% FCS containing 10 μM Ponasterone A. 24 hours after seeding the 50 μl each of the compound dilutions in DMEM medium are added into each well of the 96 Well plate. Each compound dilution is tested as quadruplicates. Wells containing untreated control cells are filled with 50 μl DMEM medium containing 1% DMSO. The cells are then incubated with the substances for 72 hours at 37° C. in a humidified atmosphere containing 5% carbon dioxide. To determine the viability of the cells, 10 μl of an Alamar Blue solution (Biosource) are added and the fluorescence was measured at an extinction of 544 nm and an emission of 590 nm. For the calculation of the cell viability the emission value from untreated cells is set as 100% viability and the emission rates of treated cells are set in relation to the values of untreated cells. Viabilities are expressed as % values. Viability is compared of proliferating cells grown in the absence of the inducer Ponasterone A, versus viability of cells arrested by the expression of ectopic p27Kip1 induced by Ponasterone A.

Row | pIC50 [2] | Compound | pIC50 [1]
1 | < 4.00 | CCOC(=O)N1CCc2c(sc(NC(=O)C3CC3c3cc(C)ccc3OC)c2C#N)C1 (centres unmarked) [Example 54, 3-Cyano-2-({1-[2-(2-methoxy-5-methyl-phenyl)-cyclopropyl]-methanoyl}-amino)-4,7-dihydro-5H-thieno[2,3-c]pyridine-6-carboxylic acid ethyl ester] | 5.70 to 6.52
2 | < 4.00 | COc1ccc(OC)c(CCC(=O)Nc2sc3c(c2C#N)CCN(C(=O)OCCc2ccccn2)C3)c1 [Example 55, 3-Cyano-2-[3-(2,5-dimethoxy-phenyl)-propanoylamino]-4,7-dihydro-5H-thieno[2,3-c]pyridine-6-carboxylic acid 2-pyridin-2-yl-ethyl ester] | 5.70 to 6.52
3 | < 4.00 | COc1ccc(C)cc1CCC(=O)Nc1sc2c(c1C#N)CCN(C(=O)OCCN1CCOCC1)C2 [Example 56, 3-Cyano-2-[3-(2-methoxy-5-methyl-phenyl)-propanoylamino]-4,7-dihydro-5H-thieno[2,3-c]pyridine-6-carboxylic acid 2-morpholin-4-yl-ethyl ester] | 5.70 to 6.52
4 | ≤ 4.40 | COc1ccc(C)cc1CCC(=O)Nc1sc2c(c1C#N)CCN(C(=O)OCc1cnccc1OC)C2 [Example 57, 3-Cyano-2-[3-(2-methoxy-5-methyl-phenyl)-propanoylamino]-4,7-dihydro-5H-thieno[2,3-c]pyridine-6-carboxylic acid 4-methoxy-pyridin-3-ylmethyl ester] | 5.70 to 6.52
5 | < 4.00 | COc1cccc(CCC(=O)Nc2sc3c(c2C#N)CCN(C(=O)OCCn2ccnc2)C3)c1 [Example 58, 3-Cyano-2-[3-(3-methoxy-phenyl)-propanoylamino]-4,7-dihydro-5H-thieno[2,3-c]pyridine-6-carboxylic acid 2-imidazol-1-yl-ethyl ester] | 5.70 to 6.52
6 | < 4.00 | COc1ccccc1CCC(=O)Nc1sc2c(c1C#N)CCN(C(=O)OCCc1cccnc1)C2 [Example 61, 3-Cyano-2-[3-(2-methoxy-phenyl)-propanoylamino]-4,7-dihydro-5H-thieno[2,3-c]pyridine-6-carboxylic acid 2-pyridin-3-yl-ethyl ester] | ≥ 6.52
7 | < 4.00 | COc1ccccc1CCC(=O)Nc1sc2c(c1C#N)CCN(C(=O)OCCc1ccncc1)C2 [Example 62, 3-Cyano-2-[3-(2-methoxy-phenyl)-propanoylamino]-4,7-dihydro-5H-thieno[2,3-c]pyridine-6-carboxylic acid 2-pyridin-4-yl-ethyl ester] | ≥ 6.52
8 | ≤ 4.40 | COc1cccc(CCC(=O)Nc2sc3c(c2C#N)CCN(C(=O)OCCc2cccnc2)C3)c1 [Example 63, 3-Cyano-2-[3-(3-methoxy-phenyl)-propanoylamino]-4,7-dihydro-5H-thieno[2,3-c]pyridine-6-carboxylic acid 2-pyridin-3-yl-ethyl ester] | ≥ 6.52
9 | < 4.00 | COc1cccc(CCC(=O)Nc2sc3c(c2C#N)CCN(C(=O)OCCc2ccncc2)C3)c1 [Example 64, 3-Cyano-2-[3-(3-methoxy-phenyl)-propanoylamino]-4,7-dihydro-5H-thieno[2,3-c]pyridine-6-carboxylic acid 2-pyridin-4-yl-ethyl ester] | ≥ 6.52
10 | < 4.00 | COc1ccccc1CCC(=O)Nc1sc2c(c1C#N)CCN(C(=O)OCCn1ccnc1)C2 [Example 73, 3-Cyano-2-[3-(2-methoxy-phenyl)-propanoylamino]-4,7-dihydro-5H-thieno[2,3-c]pyridine-6-carboxylic acid 2-imidazol-1-yl-ethyl ester] | ≥ 6.52
11 | < 4.00 | COc1ccc(C)cc1CCC(=O)Nc1sc2c(c1C#N)CCN(C(=O)OCCc1ccncc1)C2 [Example 106, 3-Cyano-2-[3-(2-methoxy-5-methyl-phenyl)-propanoylamino]-4,7-dihydro-5H-thieno[2,3-c]pyridine-6-carboxylic acid 2-pyridin-4-yl-ethyl ester] | ≥ 6.52
12 | < 4.00 | COc1cccc(CCC(=O)Nc2sc3c(c2C#N)CCN(C(=O)OCc2nccn2C)C3)c1 [Example 119, 3-Cyano-2-[3-(3-methoxy-phenyl)-propanoylamino]-4,7-dihydro-5H-thieno[2,3-c]pyridine-6-carboxylic acid 1-methyl-1H-imidazol-2-ylmethyl ester] | ≥ 6.52
13 | ≤ 5.00 | COc1ccccc1CCC(=O)Nc1sc2c(c1C#N)CCN(C(=O)OCc1nccn1C)C2 [Example 122, 3-Cyano-2-[3-(2-methoxy-phenyl)-propanoylamino]-4,7-dihydro-5H-thieno[2,3-c]pyridine-6-carboxylic acid 1-methyl-1H-imidazol-2-ylmethyl ester] | ≥ 6.52
14 | < 4.00 | COc1ccccc1CCC(=O)Nc1sc2c(c1C#N)CCN(C(=O)OCc1cncn1C)C2 [Example 123, 3-Cyano-2-[3-(2-methoxy-phenyl)-propanoylamino]-4,7-dihydro-5H-thieno[2,3-c]pyridine-6-carboxylic acid 3-methyl-3H-imidazol-4-ylmethyl ester] | ≥ 6.52
15 | ≤ 5.00 | COc1ccccc1CCC(=O)Nc1sc2c(c1C#N)CCN(C(=O)OCCn1ccnc1C)C2 [Example 124, 3-Cyano-2-[3-(2-methoxy-phenyl)-propanoylamino]-4,7-dihydro-5H-thieno[2,3-c]pyridine-6-carboxylic acid 2-(2-methyl-imidazol-1-yl)-ethyl ester] | ≥ 6.52
16 | ≤ 5.00 | COc1ccc(C)cc1CCC(=O)Nc1sc2c(c1C#N)CCN(C(=O)OCc1cncn1C)C2 [Example 130, 3-Cyano-2-[3-(2-methoxy-5-methyl-phenyl)-propanoylamino]-4,7-dihydro-5H-thieno[2,3-c]pyridine-6-carboxylic acid 3-methyl-3H-imidazol-4-ylmethyl ester] | 5.70 to 6.52
17 | ≤ 4.40 | COc1ccc(C)cc1CCC(=O)Nc1sc2c(c1C#N)CCN(C(=O)OCCn1ccnc1C)C2 [Example 131, 3-Cyano-2-[3-(2-methoxy-5-methyl-phenyl)-propanoylamino]-4,7-dihydro-5H-thieno[2,3-c]pyridine-6-carboxylic acid 2-(2-methyl-imidazol-1-yl)-ethyl ester] | ≥ 6.52
18 | ≤ 4.40 | COc1ccc(C)cc1CCC(=O)Nc1sc2c(c1C#N)CCN(C(=O)OCCn1ccnc1)C2 [Example 132, 3-Cyano-2-[3-(2-methoxy-5-methyl-phenyl)-propanoylamino]-4,7-dihydro-5H-thieno[2,3-c]pyridine-6-carboxylic acid 2-imidazol-1-yl-ethyl ester] | ≥ 6.52
19 | < 4.00 | COc1cccc(CCC(=O)Nc2sc3c(c2C#N)CCN(C(=O)OCCn2cnc(C)c2)C3)c1 [Example 142, 3-Cyano-2-[3-(3-methoxy-phenyl)-propanoylamino]-4,7-dihydro-5H-thieno[2,3-c]pyridine-6-carboxylic acid 2-(4-methyl-imidazol-1-yl)-ethyl ester] | ≥ 6.52
20 | < 4.00 | COc1ccccc1CCC(=O)Nc1sc2c(c1C#N)CCN(C(=O)OCC(=O)O)C2 [Example 153, 3-Cyano-2-[3-(2-methoxy-phenyl)-propanoylamino]-4,7-dihydro-5H-thieno[2,3-c]pyridine-6-carboxylic acid carboxymethyl ester] | 5.70 to 6.52
21 | < 4.00 | COc1ccc(C)cc1CCC(=O)Nc1sc2c(c1C#N)CCN(C(=O)OCC(=O)O)C2 [Example 155, 3-Cyano-2-[3-(2-methoxy-5-methyl-phenyl)-propanoylamino]-4,7-dihydro-5H-thieno[2,3-c]pyridine-6-carboxylic acid carboxymethyl ester] | 5.70 to 6.52
22 | < 4.00 | CCOc1ccccc1CCC(=O)Nc1sc2c(c1C#N)CCN(C(=O)OCC(=O)OC)C2 [Example 190, 3-Cyano-2-[3-(2-ethoxy-phenyl)-propanoylamino]-4,7-dihydro-5H-thieno[2,3-c]pyridine-6-carboxylic acid methoxycarbonylmethyl ester] | ≥ 6.52
